From patent US10406125B2, “Combination comprising an aminothiolester compound or a pharmaceutically acceptable salt thereof and a compound able to increase the H2O2 level in cancer cells of a subject” (ADVANCED BIODESIGN, priority 2015, dated 2019)
Read-outs that look alike come from different tables or passages of the source.

What was measured:
[1] = test system: H2O2 level in Colo357 cell line; test: Measurement of H2O2 level in Colo357 cell line (FIG. 8A); assay type: cell-based; settings: CPPD 20 μmol·L−1, Doxo 25 μmol·L−1
Experimental: Intracellular H2O2 production in live cells was measured using Total ROS/superoxide detection kit (Enzo life science), following the manufacturer's instructions. The assay uses specific H2O2/RNS probes that upon reaction with H2O2 and RNS species are oxidized rapidly to highly fluorescent compounds. Fluorescence intensity is proportional to the total H2O2/RNS levels within the sample. […] The day before the analysis, cells were seeded in 96-well black/clear bottom plates at a density of 2×10^4 in culture media according to cell suppliers instructions, supplemented with FBS (10% v/v), 10 units of penicillin/ml and 100 mg of streptomycin. Cells were kept at 37° C. in a humid atmosphere of 95% air: 5% CO2 overnight. […] After the incubation period, wells were loaded with 100 μL of H2O2 Detection Solution, containing the respective treatment agent or controls and incubated for 60 min at 37° C. in the dark. Several wells were left without cells for the background fluorescence control measurements. Plates were read using Appliskan fluorescence microplate reader (Thermo Scientific) (ex=560 nm, Em=600). Data are expressed as the change in arbitrary fluorescence units produced from equal amount of cells and normalized to total protein input.

Colo357 = test: Viability of Colo357 cells under combination treatment (FIG. 8B); assay type: cell-based; settings: Colo357 (high GSH), combination treatment with S-methyl 4-(dimethylamino)-4-methylpent-2-ynethioate
H2O2 levels = test: Measurement of H2O2 production after cell exposure to pyocianin; assay type: cell-based, human; settings: pyocianin 40 μM
Experimental: Measurement of H2O2 Production
Intracellular H2O2 production in live cells was measured using Total ROS/superoxide detection kit (Enzo life science), following the manufacturer's instructions. The assay uses specific H2O2/RNS probes that upon reaction with H2O2 and RNS species are oxidized rapidly to highly fluorescent compounds. Fluorescence intensity is proportional to the total H2O2/RNS levels within the sample. […] The day before the analysis, cells were seeded in 96-well black/clear bottom plates at a density of 2×10^4 in culture media according to cell suppliers instructions, supplemented with FBS (10% v/v), 10 units of penicillin/ml and 100 […]. Cells were kept at 37° C. in a humid atmosphere of 95% air: 5% CO2 overnight. On the day of the analysis, cells media was replaced by 100 μL of phenol free-media supplemented as above, without any treatment, with S-methyl 4-(dimethylamino)-4-methylpent-2-ynethioate for 6 hours, vehicle HEPES for 6 hours, or with the different control agents PCN and NAC for 20 min. […] Several wells were left without cells for the background fluorescence control measurements. Plates were read using Appliskan fluorescence microplate reader (Thermo Scientific) (ex=560 nm, Em=600). Data are expressed as the change in arbitrary fluorescence units produced from equal amount of cells and normalized to total protein input.

cancer cells = test: Cell viability after exposure to pyocianin; assay type: cell-based, human; settings: pyocianin 40 μM
Experimental: Cells were seeded into 96-well cell culture plates at concentrations required to ensure approximately 80% confluence in control (untreated cells) at the end of experiment (0.5×10^4-5×10^4 cell/well). The sensitivity towards S-methyl 4-(dimethylamino)-4-methylpent-2-ynethioate was determined using different concentrations of the drug (from 0.01 to 100 μM). After 48 hours, the growth-inhibitory effect of the drug was analyzed using Rezasurin, according to manufactures instruction. To ensure good data quality and to minimize impact of pipetting errors, each particular drug concentration was assessed based on mean fluorescence intensity from 8 separate wells. The drug response was quantified by the half maximal inhibitory concentration (IC50) for each particular cell line, and determined by non-linear regression analysis of log-dose/response curves. Cut-off value for resistance to S-methyl 4-(dimethylamino)-4-methylpent-2-ynethioate was determined statistically (>2 S.D. above the IC50 geometric mean). The in-vitro threshold value for hypersensitivity to the drug has been defined as <IC50 geometric mean.
In a different experiment, cells showing resistance to S-methyl 4-(dimethylamino)-4-methylpent-2-ynethioate (THP-1, HCC827, and Hop62) were challenged with H2O2 inducer. […]

[2] = cited from earlier work
Hop62 = test: Cell viability assay (Rezasurin), 96 well format; assay type: cell-based; settings: Homo sapiens, HOP-62, 48 h, DIMATE alone or with PCN 40 μM, read-out: abs.IC50
HCC827 = test: Cell viability assay (Rezasurin), 96 well format; assay type: cell-based; settings: Homo sapiens, 48 h, DIMATE alone or with PCN 40 μM, read-out: abs.IC50
MSC = test: Quantification of MDA and HNE adducts by ELISA in resistant cells; assay type: cell-based; settings: 5 or 10 μmol·L^−1, 24 hours
Experimental: (§1) Quantitative Determination of FINE-Protein and MDA/Protein Adducts by ELISA
(§2) The formation of HNE-adducts and MDA-adducts was quantified with the Oxiselect HNE Adduct Elisa kit (Cell Biolabs, San Diego, Calif.) and the OxiSelect MDA Adduct ELISA Kit (Cell Biolabs), respectively. Briefly, after a treatment with S-methyl 4-(dimethylamino)-4-methylpent-2-ynethioate during 24 hours, cells were lysed by sonication in reducing SDS Sample Buffer. Homogenates were diluted to 10 μg protein/mL and adsorbed in 96-well protein binding plates by incubation at 37° C. for at least 2 hours. Wells were washed twice with PBS and incubated for an additional 2 hours at room temperature on an orbital shaker. Following three washes in PBS, 100 μL of anti-HNE antibody or anti-MDA antibody were added to the wells and incubated for 1 hour at room temperature. Subsequently, goat anti-rabbit secondary antibody-HRP conjugate (diluted 1/1000 with the assay diluent) was added and incubation continued for 1 hour. Wells were washed five times in PBS and HRP-substrate was added. Reaction was stopped with an acidic solution, and absorbance read on a microplate reader at 450 nm. The level of HNE-adducts and of MDA-adducts was determined by comparison with a standard curve prepared from HNE-BSA and MDA-BSA standards supplied by the manufacturer.

HL-60, NT2/D1 = test: Quantification of MDA and HNE adducts by ELISA in sensitive cells; assay type: cell-based, human; settings: 5 or 10 μmol·L^−1, 24 hours
Experimental: as §1, §2

THP-1 = test: Cell viability assay (Rezasurin), 96 well format; assay type: cell-based; settings: Homo sapiens, 48 h

In the case of `COc1cccc2c1C(=O)c1c(O)c3c(c(O)c1C2=O)C[C@@](O)(C(=O)CO)C[C@@H]3O[C@H]1C[C@H](N)[C@H](O)[C@H](C)O1` [Doxo, Doxorubicin], the “increase of H2O2 level” value [1] is reported as 10 000% and the effect on viability (Colo357) is reported as “no effect”.
With `N.N.[Cl][Pt][Cl]` [CPPD, Cisplatin] the “increase of H2O2 level” value [1] was 200% and the effect on viability (Colo357) was “no effect”.
In the case of `Cn1c2cccc(=O)c-2nc2ccccc21` [pyocianin, pyocyanin], the “increase in H2O2 levels” value (H2O2 levels) is reported as “two-fold increase” and the “effect on cell viability” value (cancer cells) is reported as “without affecting cell viability”.
For `CC(=O)N[C@@H](CS)C(=O)O` [NAC, N-acetyl-L-cysteine], the “rate constant, scavenging of hydroxy radicals” value ([2]; hydroxy radicals) is given as 1.36×10^10 M^−1,s^−1 and the “reaction with superoxide anion” value ([2]; superoxide anion) is given as “no reaction”.
With `CSC(=O)C#CC(C)(C)N(C)C` [DIMATE, S-methyl 4-(dimethylamino)-4-methylpent-2-ynethioate] the IC50 (Hop62) was 39 µM, the IC50 (HCC827) was 25 µM and the HNE-adducts level (MSC) was < 1 μg per μg of total protein. The MDA-adducts level (MSC) was < 100 ng per μg of total protein, the HNE-adducts level (HL-60, NT2/D1) was > 1 μg per μg of total protein and the MDA-adducts level (HL-60, NT2/D1) was “above 100 ng per μg of total protein”. The IC50 (THP-1; THP-1, DIMATE alone or with PCN 40 μM, read-out: abs.IC50) was 46 µM and the IC50 (THP-1; THP-1 resistant cells, DIMATE alone or with H2O2 inducer at fixed concentration (2-ME 100 μM, ATO 1 μM, Daunorubicine 40 nM, Doxorubicine 20 nM, Etoposide 500 nM, Mitoxanthrone 50 nM, Parthenolide 100 nM, Piperlongumine 2 μM), read-out: IC50) was 46 µM.
